Source: patent US20080262235A1, “Method and Apparatus for Producing Oxidized Compound” (priority 2005, published 2008)
Several values for one entry are separate records, joined by “and”; a condition that tells them apart may be missing. Identical values can stand only once.

Columns and labels:
Assay type in all cases: physicochemical
[1] = Test 2: crystal stability by coloration, absorbance (390 nm) of crystals dissolved in dimethylformamide; conditions: for Absorbance of solution of crystals just after preparation / Absorbance of solution of crystals after stored at 60° C. for 15 days: 1 g crystals in 10 mL dimethylformamide; for Change in Absorbance: after 60° C. for 15 days minus just after preparation
Procedure: In the method according to EXAMPLE 3, the amount of ethanol added to the mixed solution in which the wet crystals of the solvate of ethanol-water of lansoprazole are suspended was changed, and the stability of thus obtained crystals was compared.
The crystals obtained from each of mixed solution systems shown in Table 2 below were each dissolved in dimethylformamide just after the preparation and after stored at 60° C. for 15 days, and the absorbance (390 nm) of thus obtained solutions of crystals was measured. The degree of coloration was compared as an indicator of the crystal stability.
The absorbance of the solution prepared by dissolving 1 g of crystals into 10 mL of dimethylformamide was measured with the use of a spectral photometer (Jasco No. 0214332).
In addition, the pH of each mixed solution in which crystals are suspended was adjusted to about 9 with an aqueous ammonia solution.

[2] = Test 1: storage stability of lansoprazole crystals, content by HPLC; conditions: for Residual ratio after stored for 6 months at 40° C.: [(Content after stored for 6 months at 40° C.)/(Initial Content)]×100; for Initial Content / Content after stored for 6 months at 40° C.: content of lansoprazole in crystals, wt %, HPLC; for Initial Content: before storage
From the text: The stability of the crystals of the solvate of lansoprazole (hereinafter, referred to as lansoprazole (1)) obtained by vacuum drying the wet crystals of the solvate of ethanol-water of lansoprazole obtained according to the method in EXAMPLE 2, was compared to the stability of the white crystals of lansoprazole (hereinafter, referred to as lansoprazole (2)) obtained according to the method in EXAMPLE 3.
Herein, the “content” in Table 1 refers to the content of lansoprazole in lansoprazole crystals expressed in wt %, and was measured by HPLC technique (analyzed under each of following conditions: for (1), Column: NOVA PAK, C18, 3.9×150 mm, Temperature: constant temperature of around 25° C., Mobile phase: solution prepared by adjusting the pH of methanol:water:triethylamine (weight ratio=60:40:1) with phosphoric acid to 7.0, Flow rate: 0.5 ml/min, Detector: UV 285 nm, and for (2), Column: CAPCELL PAC, C18, SG120, 4.6×250 mm, Temperature: constant temperature of around 25° C., Mobile phase: solution prepared by adjusting the pH of acetonitrile:water:triethylamine (weight ratio=40:60:1) with phosphoric acid to 7.0, Flow rate: 1 ml/min, Detector: UV 285 nm). The “residual ratio after stored for 6 months at 40° C.” was calculated by [(Content after stored for 6 months at 40° C.)/(Initial Content)]×100 (%).

[3] = Stability of crystals obtained in Example 2 (statement only)

Row | SMILES | Absorbance of solution of crystals just after preparation [1] | Absorbance of solution of crystals after stored at 60° C. for 15 days [1] | Change in Absorbance [1] | Residual ratio after stored for 6 months at 40° C. [2] | Initial Content [2] | Content after stored for 6 months at 40° C. ([2]; 6 months at 40° C.) | further results
1 | Cc1c(OCC(F)(F)F)ccnc1C[S+]([O-])c1nc2ccccc2[nH]1 (racemic) [About 40:1, (+/−)-2-(((3-methyl-4-(2,2,2-trifluoroethoxy)-2-pyridyl)methyl)sulfinyl)benzimidazole] | 0.056 | 0.964 | 0.908 |  |  |  | 
2 | Cc1c(OCC(F)(F)F)ccnc1C[S+]([O-])c1nc2ccccc2[nH]1 (racemic) [About 160:1, (+/−)-2-(((3-methyl-4-(2,2,2-trifluoroethoxy)-2-pyridyl)methyl)sulfinyl)benzimidazole] | 0.054 | 1.135 | 1.081 |  |  |  | 
3 | Cc1c(OCC(F)(F)F)ccnc1C[S+]([O-])c1nc2ccccc2[nH]1 (racemic) [Ethanol non-added, (+/−)-2-(((3-methyl-4-(2,2,2-trifluoroethoxy)-2-pyridyl)methyl)sulfinyl)benzimidazole] | 0.046 | 1.703 | 1.657 |  |  |  | 
4 | Cc1c(OCC(F)(F)F)ccnc1C[S+]([O-])c1nc2ccccc2[nH]1 (racemic) [lansoprazole (1), (+/−)-2-(((3-methyl-4-(2,2,2-trifluoroethoxy)-2-pyridyl)methyl)sulfinyl)benzimidazole] |  |  |  | 91.3% and 84.7% and 86.8% | 99.2% and 99.3% and 99.1% | 90.6% and 84.1% and 86.0% | 
5 | Cc1c(OCC(F)(F)F)ccnc1C[S+]([O-])c1nc2ccccc2[nH]1 (racemic) [lansoprazole (2), (+/−)-2-(((3-methyl-4-(2,2,2-trifluoroethoxy)-2-pyridyl)methyl)sulfinyl)benzimidazole] |  |  |  | ~100% | 99.7% and 99.8% | 99.6% and 99.8% | stability of crystal compared to lansoprazole (1) ([2]; 6 months at 40° C.): more excellent stability; Residual ratio after stored for 6 months at 40° C. ([2]; listed as (2)): 99.9% and 100.0%
6 | Cc1c(OCC(F)(F)F)ccnc1C[S+]([O-])c1nc2ccccc2[nH]1 (racemic) [lansoprazole I type crystal, (+/−)-2-(((3-methyl-4-(2,2,2-trifluoroethoxy)-2-pyridyl)methyl)sulfinyl)benzimidazole] |  |  |  |  |  |  | stability of obtained crystals [3]: stable
